# Target: T1, GST-YTHDC1 (345-509) protein (Homo sapiens, UniProt Q96MU7)
# T1 construct: GST-YTHDC1 (345-509) protein
# Assay: Fluorescence polarization-based in vitro enzyme-level test against YTHDC1
# Assay type: binding
# Conditions: 30 nM GST-YTHDC1 (345-509), FAM-labeled m6A-modified single-stranded oligonucleotide, 18° C., 4 hours; read-out: IC50 (Inhibitory Activity against YTHDC1)
row,IC50 [nM],Structure (SMILES)
1,25,O=C(Nc1ccc(-c2cnco2)cc1)c1cc(C(=O)c2ccccc2C2=CCCC2)c[nH]1 [Compound 142]
2,1130,O=C(Nc1ccc(-c2cncs2)cc1)c1cc2c(-c3ccccc3-c3ccccc3)nccc2[nH]1 [Compound 64]
3,66,C[C@H]1CN(c2ccccc2C(=O)c2c[nH]c(C(=O)Nc3ccc(-c4cnco4)cc3)c2)CCO1 [Compound 148]
4,> 50000,O=C(Nc1cccnc1)c1cc(C(=O)c2ccccc2F)c[nH]1 [Compound 7]
5,190,C[C@@H]1CN(c2ccccc2C(=O)c2c[nH]c(C(=O)Nc3ccc(-c4cnco4)cc3)c2)C[C@H](C)O1 [Compound 147]
6,23,O=C(Nc1ccc(-c2cnco2)cc1)c1cc(C(=O)c2ccccc2N2CCCC2)c[nH]1 [Compound 128]
7,15,CN(C)CCOc1cc(NC(=O)c2cc(C(=O)c3ccccc3C(F)(F)F)c[nH]2)ccc1-c1cnco1 [Compound 98]
8,47,O=C(Nc1ccc(-c2cccnc2)cc1)c1cc(C(=O)c2ccccc2C(F)(F)F)c[nH]1 [Compound 23]
9,61,O=C(Nc1ccc(-c2cnc(N3CCNCC3)o2)cc1)c1cc(C(=O)c2ccccc2C(F)(F)F)c[nH]1 [Compound 81]
10,23,O=C(Nc1ccc(-c2cnc[nH]2)cc1)c1cc(C(=O)c2ccccc2C(F)(F)F)c[nH]1 [Compound 27]
11,9.7,O=C(Nc1ccc(-c2cnco2)cc1)c1cc(C(=O)c2ccccc2C(F)(F)F)c[nH]1 [Compound 105]
12,17,O=C(Nc1ccc(-c2cnc(N3CCOCC3)s2)cc1)c1cc(C(=O)c2ccccc2C(F)(F)F)c[nH]1 [Compound 38]
13,9,O=C(Nc1ccc(-c2cnc(N3CCC3)o2)cc1)c1cc(C(=O)c2ccccc2C(F)(F)F)c[nH]1 [Compound 104]
14,36,O=C(Nc1ccc(-c2ccoc2)cc1)c1cc(C(=O)c2ccccc2C(F)(F)F)c[nH]1 [Compound 25]
15,48,O=C(Nc1ccc(-c2cnco2)cc1)c1cc(C(=O)c2ccccc2N2CC3(CCC3)C2)c[nH]1 [Compound 144]
16,> 50000,O=C(c1ccc(C(F)(F)F)cc1)c1c[nH]c(C(=O)Nc2ccc(-c3cncs3)cc2)c1 [Compound 39]
17,20,O=C(Nc1ccc(-c2cnco2)cc1)c1cc(C(=O)c2ccccc2N2CCOCC2)c[nH]1 [Compound 138]
18,11200,CSc1ccccc1-c1nccc2[nH]c(C(=O)Nc3ccc(-c4cncs4)cc3)cc12 [Compound 65]
19,937,O=C(Nc1ccc2c(c1)OCC1CNCCN21)c1cc(C(=O)c2ccccc2C(F)(F)F)c[nH]1 (centres unmarked) [Compound 91]
20,192,O=C(Nc1ccc(-c2cncs2)cc1)c1cc2c(-c3ccccc3C(F)(F)F)nccc2[nH]1 [Compound 41]
21,1780,O=C(Nc1cccnc1)c1cc(C(=O)c2ccccc2Br)c[nH]1 [Compound 5]
22,> 50000,CC(C)n1nccc1-c1nccc2[nH]c(C(=O)Nc3ccc(-c4cncs4)cc3)cc12 [Compound 40]
23,5040,CCN(CCNc1ncc(-c2ccc(NC(=O)c3cc(C(=O)c4ccccc4C(F)(F)F)c[nH]3)cc2)o1)C(=O)OC(C)(C)C [Compound 76]
24,2280,CS(=O)(=O)c1ccccc1-c1ccnc2[nH]c(C(=O)Nc3ccc(-c4cncs4)cc3)cc12 [Compound 70]
25,54,O=C(Nc1ccc(C(F)(F)F)c(F)c1)c1cc(C(=O)c2ccccc2C(F)(F)F)c[nH]1 [Compound 113]

row,IC50 [nM],Structure (SMILES)
1,39,O=C(Nc1ccc(C(F)(F)F)cc1)c1cc(C(=O)c2ccccc2C(F)(F)F)c[nH]1 [Compound 18]
2,67,CS(=O)(=O)c1ccccc1-c1nccc2cc(C(=O)Nc3ccc(-c4cncs4)cc3)[nH]c12 [Compound 50]
3,> 50000,COc1cnccc1-c1nccc2[nH]c(C(=O)Nc3ccc(-c4cncs4)cc3)cc12 [Compound 46]
4,413,CN(C)c1ccccc1-c1ccc(NC(=O)c2cc(C(=O)c3ccccc3C(F)(F)F)c[nH]2)cc1 [Compound 110]
5,> 50000,O=C(c1ccccc1)c1c[nH]c(C(=O)Nc2cccnc2)c1 [Compound 6]
6,258,CN(CCO)c1cc(NC(=O)c2cc(C(=O)c3ccccc3C(F)(F)F)c[nH]2)ccc1-c1cnco1 [Compound 99]
7,13,CC1CCN(c2ccccc2C(=O)c2c[nH]c(C(=O)Nc3ccc(-c4cnco4)cc3)c2)CC1 [Compound 125]
8,31,CC(=O)c1ccc(NC(=O)c2cc(C(=O)c3ccccc3C(F)(F)F)c[nH]2)cc1 [Compound 19]
9,80,CS(=O)(=O)c1ccccc1-c1ncc(F)c2[nH]c(C(=O)Nc3ccc(-c4cncs4)cc3)cc12 [Compound 58]
10,847,O=C(Nc1ccc(-c2cnc(N3CCN(CCO)CC3)o2)cc1)c1cc(C(=O)c2ccccc2Br)c[nH]1 [Compound 86]
11,747,O=C(Nc1ccc2c(c1)CCN2c1ccccc1)c1cc(C(=O)c2ccccc2C(F)(F)F)c[nH]1 [Compound 133]
12,14,CCN(C)c1ncc(-c2ccc(NC(=O)c3cc(C(=O)c4ccccc4C(F)(F)F)c[nH]3)cc2)o1 [Compound 103]
13,67,O=C(Nc1ccc(-c2cnc(N3CCOCC3)o2)cc1)c1cc(C(=O)c2ccccc2C(F)(F)F)c[nH]1 [Compound 77]
14,≥ 50000,COc1ccc(CNc2ccccc2C(=O)c2c[nH]c(C(=O)Nc3ccc(-c4cnco4)cc3)c2)cc1 [Compound 130]
15,86,O=C(Nc1ccc(-c2cncnc2)cc1)c1cc(C(=O)c2ccccc2C(F)(F)F)c[nH]1 [Compound 102]
16,11,O=C(Nc1ccc(-c2cnco2)cc1)c1cc(C(=O)c2ccccc2N2CCC(F)C2)c[nH]1 (centres unmarked) [Compound 137]
17,125,CC(C)(C)OC(=O)N1CCN2c3ccc(NC(=O)c4cc(C(=O)c5ccccc5C(F)(F)F)c[nH]4)cc3OCC2C1 (centres unmarked) [Compound 82]
18,15,N#Cc1ccc(-c2ccc(NC(=O)c3cc(C(=O)c4ccccc4C(F)(F)F)c[nH]3)cc2)s1 [Compound 31]
19,2840,O=C(Nc1cccnc1)c1cc(C(=O)c2ccccc2Cl)c[nH]1 [Compound 8]
20,> 50000,O=C(Nc1ccc(-c2cncs2)cc1)c1cc2c(-c3ccccc3OC(F)(F)F)c(F)ccc2[nH]1 [Compound 59]
21,41,C[C@H]1CN(c2ccccc2C(=O)c2c[nH]c(C(=O)Nc3ccc(-c4cnco4)cc3)c2)C[C@H](C)O1 [Compound 149]
22,14200,O=C(Nc1ccc(Cc2ccccc2)cc1)c1cc(C(=O)c2ccccc2C(F)(F)F)c[nH]1 [Compound 119]
23,> 50000,CC(C)(C)NS(=O)(=O)c1ccccc1-c1nccc2[nH]c(C(=O)Nc3ccc(-c4cncs4)cc3)cc12 [Compound 57]
24,1050,CN1CCN(c2ccccc2C(=O)c2c[nH]c(C(=O)Nc3ccc(-c4cnco4)cc3)c2)CC1 [Compound 139]
25,> 50000,CC(C)(C)OC(=O)N1CCN(c2ncc(-c3ccc(NC(=O)c4cc(C(=O)C5C=CC=CC5Br)c[nH]4)cc3)o2)CC1 (centres unmarked) [Compound 84]

row,IC50 [nM],Structure (SMILES)
1,50.9,CN(C)c1cc(NC(=O)c2cc(C(=O)c3ccccc3C(F)(F)F)c[nH]2)ccc1-c1cnco1 [Compound 97]
2,> 50000,O=C(Nc1cccnc1)c1cc(C(=O)c2c(Br)ccc(F)c2F)c[nH]1 [Compound 4]
3,1670,CCSc1ccccc1-c1nccc2[nH]c(C(=O)Nc3ccc(-c4cncs4)cc3)cc12 [Compound 68]
4,> 50000,O=C(Nc1ccc(-c2cncs2)cc1)c1cc2c(-c3ccccc3OC3CC3)nccc2[nH]1 [Compound 67]
5,64,O=C(Nc1ccc(-c2ccsc2)cc1)c1cc(C(=O)c2ccccc2C(F)(F)F)c[nH]1 [Compound 26]
6,> 50000,O=C(Nc1ccc(-c2cncs2)cc1)c1cc2c(-c3ccccc3F)nccc2[nH]1 [Compound 53]
7,12,O=C(Nc1ccc(-c2ccncc2)cc1)c1cc(C(=O)c2ccccc2C(F)(F)F)c[nH]1 [Compound 24]
8,84,CC1(C)CN(c2ccccc2C(=O)c2c[nH]c(C(=O)Nc3ccc(-c4cnco4)cc3)c2)CCO1 [Compound 150]
9,180,O=C(Nc1ccc(-c2cncs2)cc1)c1cc2c(ncn2-c2ccccc2C(F)(F)F)[nH]1 [Compound 42]
10,36500,CS(=O)(=O)c1ccccc1-c1nccc2[nH]c(C(=O)Nc3ccc(-c4ccccc4)cc3)cc12 [Compound 72]
11,22,CN1C(=O)Cc2cc(-c3ccc(NC(=O)C4=CC(C(=O)c5ccccc5C(F)(F)F)CN4)cc3)ccc21 (centres unmarked) [Compound 107]
12,162,CS(=O)(=O)c1ccc(NC(=O)c2cc(C(=O)c3ccccc3C(F)(F)F)c[nH]2)cc1 [Compound 100]
13,118,O=C(Nc1ccc(S(=O)(=O)Nc2ccccc2)cc1)c1cc(C(=O)c2ccccc2C(F)(F)F)c[nH]1 [Compound 123]
14,660,CS(=O)(=O)Nc1ccccc1-c1nccc2[nH]c(C(=O)Nc3ccc(-c4cncs4)cc3)cc12 [Compound 52]
15,8.5,CN(C)c1ncc(-c2ccc(NC(=O)c3cc(C(=O)c4ccccc4C(F)(F)F)c[nH]3)cc2)o1 [Compound 75]
16,335,O=C(Nc1ccc(-c2cnc(N3CCCCC3)s2)cc1)c1cc(C(=O)c2ccccc2C(F)(F)F)c[nH]1 [Compound 37]
17,43,CN(C)CCOc1cc(NC(=O)c2cc(C(=O)c3ccccc3C(F)(F)F)c[nH]2)ccc1-c1cnco1 [Compound 101]
18,21,O=C(Nc1ccc(-c2cnco2)cc1)c1cc(C(=O)c2ccccc2C2CCCC2)c[nH]1 [Compound 146]
19,11,Cc1ncc(-c2ccc(NC(=O)c3cc(C(=O)c4ccccc4C(F)(F)F)c[nH]3)cc2)s1 [Compound 32]
20,> 50000,O=C(Nc1cccnc1)c1cc(C(=O)c2c(F)cc(F)cc2Br)c[nH]1 [Compound 3]
21,71,O=C(Nc1ccc(-c2ccccc2)cc1)c1cc(C(=O)c2ccccc2C(F)(F)F)c[nH]1 [Compound 21]
22,35,COC1CN(c2ccccc2C(=O)c2c[nH]c(C(=O)Nc3ccc(-c4cnco4)cc3)c2)C1 [Compound 131]
23,280,CS(=O)(=O)c1ccccc1-c1nccc2[nH]c(C(=O)Nc3ccc(-c4cnco4)cc3)cc12 [Compound 62]
24,2510,CN(C)c1ccccc1-c1nccc2[nH]c(C(=O)Nc3ccc(-c4cncs4)cc3)cc12 [Compound 61]

# — patent US20260265222A1, “1H-PYRROLE-2-AMIDE DERIVATIVE, PHARMACEUTICAL COMPOSITION AND METHOD FOR TREATING AND/OR PREVENTING YTHDC1-RELATED DISEASES” (priority 2023, published 2026)
